Measurements as given in patent US20260345771A1, “THERAPY COMPRISING ANTI-CD19 ANTIBODY AND EZH2 MODULATORS” (Incyte Corporation, priority 2022, published 2026).
Each block holds one molecule with its values, some of them ahead of it.

Columns and labels:
[1] = system: SU-DHL-6 cells; test: CellTiter-Glo (CTG) viability assay, SU-DHL-6; format: cell-based; details: Homo sapiens, 168 h; SU-DHL-6, 7 days, compound alone
Procedure: (§1) A panel of 6 lymphoma cell lines was included in the analysis (5 DLBCL and 1 Burkitt lymphoma). All cell lines were cultured in RPMI 1640 medium (Gibco) supplemented with 10%-20% FCS (Sigma) at 37 °C in 5% CO2.
(§2) To analyze direct cytotoxic and anti-proliferative effects on target cells, cell viability assays were performed using the CellTiter-Glo Kit (Promega), a luminescence assay for determination of viable cell number based on quantification of adenosine triphosphate (ATP) levels. […] Cell densities were adjusted at days 3 and 7 during the assay to avoid overgrowth. The assay was performed in clear 48- and 96-F-well bottom plates in a final volume of 1 mL or 200 μL, respectively, in a cell incubator at 37 °C and 5% CO2. In each experiment, all test conditions were performed in triplicates.
(§3) Cell viability was analyzed according to the manufacturer's protocol using the Tecan Infinite F500 plate reader. The relative viable cell count was calculated from the measured relative luminescence units (RLU) with the following equation: […]
(§4) For graphical illustration and IC50 determination, the mean values of triplicates (viability assay) or duplicates (CD19 expression) of the individual experiments were imported into GraphPad Prism software (version 8). […] IC50 curves were determined applying a non-linear regression curve fit model (sigmoidal dose response, variable slope).

[2] = system: SU-DHL-4 cells; test: CellTiter-Glo (CTG) viability assay, SU-DHL-4; format: cell-based; details: Homo sapiens, SU-DHL-4, 168 h
Procedure: as §1, §2, §3, §4

[3] = system: WSU-DLCL2 tumor; test: Tumor growth in WSU-DLCL2 tumor bearing CB17-SCID mice; format: in vivo
Procedure: The in vivo study was carried out in WSU-DLCL2 tumor bearing CB17-SCID mice. 4×10^6 WSU-DLCL2 cells (DLBCL cell line) per animal were implanted with matrigel (1:1) s.c. into the left flank of 6-8 weeks old female CB17-SCID mice. On study day 17, when a mean tumor volume of approximately 100 mm^3 was reached, animals were randomly allocated into treatment groups with 8 mice per group and treatment was started. Treatment was applied every day p.o. at 35 mg/kg or 50 mg/kg for Compound 1 (application volume: 10 mL/kg; formulation buffer: 20% propylene glycol, 10% Solutol HS15, 70% phthalate buffer) and biweekly i.v. at 3 mg/kg or 10 mg/kg for tafasitamab (application volume: 5 mL/kg; formulation buffer: PBS). Tumor volume and body weight were measured twice weekly. Mice were sacrificed when reaching a tumor volume >1500 mm^3 or latest at study end on day 69 after tumor cell implantation. Mean tumor growth curves were calculated using GraphPad Prism software (version 8.4.3).
The proof of concept in vivo study was performed in WSU-DLCL2 tumor bearing CB17-SCID mice.

- IC50 [1]: 3.8 nM
- IC50 [2]: 17.1 nM
Molecule: COC1CN([C@H]2CC[C@H]([C@@]3(C)Oc4c(Cl)cc(C(=O)NCc5c(SC)cc(C)[nH]c5=O)c(C)c4O3)CC2)C1 [Compound 1]

B1: tafasitamab: humanized monoclonal antibody that targets the antigen CD19, engineered in the IgG Fc-region to enhance ADCC (antibody, chains of the INN, looked up)
heavy: EVQLVESGGGLVKPGGSLKLSCAASGYTFTSYVMHWVRQAPGKGLEWIGYINPYNDGTKYNEKFQGRVTISSDKSISTAYMELSSLRSEDTAMYYCARGTYYYGTRVFDYWGQGTLVTVSSASTKGPSVFPLAPSSKSTSGGTAALGCLVKDYFPEPVTVSWNSGALTSGVHTFPAVLQSSGLYSLSSVVTVPSSSLGTQTYICNVNHKPSNTKVDKKVEPKSCDKTHTCPPCPAPELLGGPDVFLFPPKPKDTLMISRTPEVTCVVVDVSHEDPEVQFNWYVDGVEVHNAKTKPREEQFNSTFRVVSVLTVVHQDWLNGKEYKCKVSNKALPAPEEKTISKTKGQPREPQVYTLPPSREEMTKNQVSLTCLVKGFYPSDIAVEWESNGQPENNYKTTPPMLDSDGSFFLYSKLTVDKSRWQQGNVFSCSVMHEALHNHYTQKSLSLSPG
light: DIVMTQSPATLSLSPGERATLSCRSSKSLQNVNGNTYLYWFQQKPGQSPQLLIYRMSNLNSGVPDRFSGSGSGTEFTLTISSLEPEDFAVYYCMQHLEYPITFGAGTKLEIKRTVAAPSVFIFPPSDEQLKSGTASVVCLLNNFYPREAKVQWKVDNALQSGNSQESVTEQDSKDSTYSLSSTLTLSKADYEKHKVYACEVTHQGLSSPVTKSFNRGEC
- tumor growth inhibition ([3]; monotherapy 3 mg/kg i.v. BIW): did not reveal any tumor growth inhibition
- tumor growth inhibition ([3]; monotherapy 10 mg/kg i.v. BIW): did not reveal any tumor growth inhibition
